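Tested at 5 concentrations; 48 h exposure; 96-well plates; endpoints linearly interpolated, else capped at highest concentration. GI50 is the concentration that inhibits growth by half. The concentration for full growth arrest is given as TGI.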
Experiments:
Experiment in all cases: NCI-60 cell line screen, 48 h
A498 renal = tested on: A498 renal
EKVX NSCLC = tested on: EKVX NSCLC
HOP-62 NSCLC = tested on: HOP-62 NSCLC
NCI-H522 lung = tested on: NCI-H522 lung
SK-MEL-2 melanoma = tested on: SK-MEL-2 melanoma
SNB-19 CNS = tested on: SNB-19 CNS
TK-10 renal = tested on: TK-10 renal
UO-31 renal = tested on: UO-31 renal

Structure (SMILES)	GI50 (A498 renal) [µM]	TGI (A498 renal) [µM]	GI50 (EKVX NSCLC) [µM]	TGI (EKVX NSCLC) [µM]	GI50 (HOP-62 NSCLC) [µM]	TGI (HOP-62 NSCLC) [µM]	GI50 (NCI-H522 lung) [µM]	TGI (NCI-H522 lung) [µM]	GI50 (SK-MEL-2 melanoma) [µM]	TGI (SK-MEL-2 melanoma) [µM]	GI50 (SNB-19 CNS) [µM]	TGI (SNB-19 CNS) [µM]	GI50 (TK-10 renal) [µM]	TGI (TK-10 renal) [µM]	GI50 (UO-31 renal) [µM]	TGI (UO-31 renal) [µM]
C#CCOC(=O)/C=C/C(=O)Oc1ccc2c(C)cc(=O)oc2c1	> 100	> 100	> 100	> 100	> 100	> 100	> 100	> 100	> 100	> 100	> 100	> 100	> 100	> 100	> 100	> 100
COc1cc2c(cc1O)c(=O)n(CCN(C)C)c1c3cc4c(cc3ncc21)OCO4	0.0234	0.0882	0.239	3.66	< 0.01	0.044	< 0.0104	0.154	0.136	0.36	< 0.01	5.3	0.127	0.524	< 0.0124	0.17
CC(C)=Cc1cccc2[nH]c(O)c(N=Nc3ccc(S(N)(=O)=O)cc3)c12	> 25	> 25	> 25	> 25	> 14.3	> 25	> 25	> 25	> 25	> 25	> 14.6	> 25	2.29	> 25	> 25	> 25
COc1ccc(-c2cc(-c3ccc(OC)cc3)nc(NCCCNc3ccnc4cc(Cl)ccc34)n2)cc1	5.32	18.3	1.67	4.17	1.56	3.06	1.92	3.81	14	28.4	1.96	3.99	1.97	3.56	1.32	2.6
CC[C@H]1CCC/C=C/[C@@H]2C[C@H](O)C[C@H]2[C@H](O)/C=C/C(=O)O1	0.0174	0.0596	0.0522	> 100	0.0809	–	0.211	0.634	0.0337	0.198	0.0607	> 100	0.0355	0.568	0.0267	> 37.2
CCN1C(=O)N(CC)C2C1NN=c1s/c(=C\c3ccc(C(F)(F)F)cc3)c(=O)n12 (centres undefined)	0.164	0.719	0.521	> 56.2	0.508	29.8	0.263	4.13	0.859	> 52.3	0.647	> 44.8	2.23	> 62.3	0.839	> 42.9
COc1cc2c(c(OC)c1OC)-c1c(c3ccc([N+](=O)[O-])cc3c(=O)n1CCCBr)C2=O	> 100	> 100	> 100	> 100	15.8	54.3	17	> 100	> 100	> 100	57.4	> 100	23.5	90.2	14.4	72.5
FC(F)(F)c1nc(SCc2ccc(Cl)cc2)n[nH]1	–	> 100	–	> 100	–	> 100	–	> 100	–	> 100	–	> 100	–	> 100	–	> 100
